“Also recorded” adds a separate entry of the source. *1 amine or outer side, *2 acyl side, *3 side chain or, on linkers, in order; H or OH if unused. Where a SMILES comes first, the peptide text is derived from it. Bridges are numbered along the chain shown (N, C = ends). Roman numbers before positions name the chains, in order. [ ]: non-standard residue; d: D form. The star is where a group is joined. Hexanoyl(6-succinimido-3yl) = O=C1CC([*:1])C(=O)N1CCCCCC(=O)[*:2]; Dolaproine = CO[C@@H]([C@@H]1CCCN1)[C@@H](C)C(=O)O; Dil = CC[C@H](C)[C@H](NC)[C@@H](CC(=O)O)OC; γGlu = O=C(O)[C@H](CCC(=O)[*:2])N[*:1]; PABC = O=C(OCc1ccc(N[*:1])cc1)[*:2]; X2 = C[C@@H](N*)[C@@H](O)c1ccccc1; X1 = O=C(C1CCC(CN[*:1])CC1)[*:2]; Cit = NC(=O)NCCC[C@H](N)C(=O)O; NMeV = CN[C@H](C(=O)O)C(C)C; CO = O=C([*:1])[*:2]; Ahx = NCCCCCC(=O)O
Legend:
[1] = tested on: orthotopic PC3pip tumors; assay: Orthotopic PC3pip survival study; type: in vivo, mouse; conditions: 3860 nmol/kg (so in the source) i.v. every 4 days, five doses, n = 5
Experimental: Surgical orthotopic tumor implantation was performed as previously reported. Tumor growth/size was monitored using Siemens Acuson S2000 (Siemens AG. Munich, Germany) ultrasound scanner. When the tumors were at the appropriate size (5 mm diameter as measured by ultrasound, approximately 2 weeks) animals were given PSMA-1-VcMMAE, or PBS every 4 days with a total of five doses. Tumors were monitored every other day by ultrasound. Each group utilized five mice.

[2] = target: T1, human liver cathepsin B (Homo sapiens, UniProt P07858); assay: Enzymatic cleavage by cathepsin B, HPLC analysis; type: in vitro ADME; conditions: activated human liver cathepsin B, 2 μM conjugate, 37 °C, triplicate
T1 construct: purchased Anthens Research and Technology, Anthens, AL, USA (so in the source); host or cells: human liver (tissue-derived enzyme)
Experimental: (§1) Cathepsin is a prevalent protease that PSMA internalized ligands will encounter as they enter into late endosomes/lysosomes. To investigate if PSMA-targeted drug conjugates were cleavable by cathepsin B, the two conjugates were incubated with or without cathepsin protease and chromatographed by high performance liquid chromatography (HPLC).
(§2) At different time intervals, 40 μL of the solution was taken out into tubes loaded with 1 μL of 1 mM E64 protease inhibitor. […] Studies were performed in triplicate.

[3] = Stability on incubation in PBS (without cathepsin), HPLC; type: in vitro ADME; conditions: incubation with PBS without cathepsin, triplicate
Experimental: as §1, §2

[4] = tested on: heterotopic C4-2 tumors; assay: Heterotopic C4-2 tumor study; type: in vivo, mouse; conditions: 1910 nmol/kg every 4 days, five doses, 7 animals
Excerpt: To show versatility of the antitumor activity of PSMA-1-VcMMAE, we also tested it in mice bearing heterotopic C4-2 tumors, which are androgen-independent prostate cancer cells endogenously expressing PSMA. […]
drugs through tail vein inject every 4 days with total of 5 injections as indicated by the red arrows.
[…] Values are mean ± SD of 5 animals. The plots stopped when animals died during the experiments since values are represent as mean ± SD of 5 animals.
(nmol/kg) Tumor Growth (nmol/kg) Therapeutic Index *
*: Therapeutic index is defined by MTD/effective dose.
PC3flu tumors. Treatment were scheduled every 4 days with a total of five doses as indicated by the […]
red arrow. […] For tumor growth curves and body weight curves, values are mean ± SD of 5 animals. The plots stopped when animals died during the experiments since values are represent as mean ± SD of 5 animals. (A) Tumor growth curves of mice treated with 955 nmol/kg of PSMA-1-VcMMAE. (B) Comparison of the potency of PSMA-1-VcMMAE to treat PC3pip (solid line) and PC3flu tumors (dashed line) at the dose of 955 nmol/kg. (☀, PC3pip treated versus PC3pip PBS, p = 0.0005; ★, PC3pip treated versus PC3flu PBS, p = 0.0242; ♣, PC3pip treated versus PC3flu treated, p = 0.0493). (C) Body weight changes of mice treated with 955 nmol/kg of PSMA-1-VcMMAE.
Figure 9. PSMA-1-VcMMAE was effective in heterotopic C4-2 tumor model. […]

[5] = In vitro cytotoxicity assay (CCK-8), PC3flu; type: cell-based, human; conditions: human, PC3flu cells
Experimental: (§3) Cells (1000/well) were seeded in 96-well culture plates the day before treatment.

[6] = target: T2, PSMA (Homo sapiens, UniProt Q04609); assay: Competitive binding assay against 3H-ZJ24 on PC3pip cells
T2 construct: expressed in transfected cells; host or cells: PC3pip cells (PC3 retrovirally transfected with PSMA), from Dr. Michel Sadelain, MSKCC
Experimental: The assay was carried as previously reported by incubation PC3pip cells with different concentrations of drug conjugates in the presence of 10 nM N-[N-[(S)-1,3-dicarboxypropyl]carbamoyl]-S-[^3H]-methyl-L-cysteine (^3H-ZJ24) (GE Healthcare Life Sciences, Chicago, IL, USA). Radioactivity of cell pellet was counted by scintillation counter. The concentration required to inhibit 50% of binding was determined (IC50) by GraphPad Prism 3.0.

[7] = tested on: metastatic PC3pip tumor (intracardiac GFP-PC3pip cells); assay: Metastatic PC3pip survival study; type: in vivo, mouse; conditions: 1910 nmol/kg every 4 days, five doses, 90 days, n = 8
Experimental: Male athymic nude mice were injected into the left ventricle of the heart with 1 × 10^5 GFP labeled PC3pip cells to generate bone metastasis. One week later, mice received 1910 nmol/kg of PSMA-1-VcMMAE or PBS every 4 days with a total of five doses and the progression of disease was monitored by GFP imaging. Eight mice were used in each group.

[8] = In vitro cytotoxicity assay (CCK-8), PC3pip; type: cell-based, human; conditions: human; for EC50 at 72 h: PC3pip cells
Experimental: as §3

[9] = tested on: heterotopic PC3pip tumors; assay: Heterotopic PC3pip tumor survival study; type: in vivo
Experimental: Male athymic nude mice were implanted subcutaneously with 1 × 10^6 of PC3pip cells 100 μL of matrigel. When tumor size reached approximately 100 mm^3 (tumor volume = Length × width^2/2), mice received drugs through tail vein injection every 4 days with a total of five doses. Mice were treated every 4 days with a total of five doses. Animals were weighed and tumor size measured every other day for 90 days. Cures were defined as no tumor present at end of the 90-day study. When tumors became too large or animals were moribund they were euthanized. Five mice were used in each group.

[10] = 3820 nmol/kg i.v. every 4 days, five doses, n = 5

T2 sequence (Q04609 whole entry): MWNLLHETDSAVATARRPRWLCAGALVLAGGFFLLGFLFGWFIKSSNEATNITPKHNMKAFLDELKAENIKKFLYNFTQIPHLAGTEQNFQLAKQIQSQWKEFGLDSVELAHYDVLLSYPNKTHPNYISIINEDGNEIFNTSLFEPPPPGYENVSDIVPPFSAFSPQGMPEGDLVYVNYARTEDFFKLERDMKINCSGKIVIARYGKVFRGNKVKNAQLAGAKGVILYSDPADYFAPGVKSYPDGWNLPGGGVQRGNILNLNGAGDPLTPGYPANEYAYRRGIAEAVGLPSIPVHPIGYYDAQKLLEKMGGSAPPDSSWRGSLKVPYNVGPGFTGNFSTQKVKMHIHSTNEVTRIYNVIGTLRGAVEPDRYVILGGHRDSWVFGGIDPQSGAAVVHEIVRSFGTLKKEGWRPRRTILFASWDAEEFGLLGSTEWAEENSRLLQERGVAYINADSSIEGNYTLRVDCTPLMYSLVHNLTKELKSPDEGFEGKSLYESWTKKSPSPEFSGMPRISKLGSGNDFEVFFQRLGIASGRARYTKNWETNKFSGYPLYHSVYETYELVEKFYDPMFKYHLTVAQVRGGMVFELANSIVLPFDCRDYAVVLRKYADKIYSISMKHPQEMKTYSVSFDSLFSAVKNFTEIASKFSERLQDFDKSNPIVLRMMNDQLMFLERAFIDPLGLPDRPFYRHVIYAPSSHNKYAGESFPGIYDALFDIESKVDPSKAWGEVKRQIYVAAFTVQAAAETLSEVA

With `CC[C@H](C)[C@@H]([C@@H](CC(=O)N1CCC[C@H]1[C@H](OC)[C@@H](C)C(=O)N[C@H](C)[C@@H](O)c1ccccc1)OC)N(C)C(=O)[C@@H](NC(=O)[C@H](C(C)C)N(C)C(=O)OCc1ccc(NC(=O)[C@H](CCCNC(N)=O)NC(=O)[C@@H](NC(=O)CCCCCN2C(=O)CC(SC[C@H](NC(=O)[C@@H](CCC(=O)O)NC(=O)[C@@H](CCC(=O)O)NC(=O)[C@@H](CCC(=O)O)NC(=O)CCCCCNC(=O)C3CCC(CNC(=O)CC[C@H](NC(=O)N[C@@H](CCC(=O)O)C(=O)O)C(=O)O)CC3)C(=O)NCCCCCC(=O)N[C@@H](CCCCN)C(N)=O)C2=O)C(C)C)cc1)C(C)C` (some centres unmarked) [PSMA-1-VcMMAE] (I: {Glu-CO-γGlu}-[X1][Ahx][dE][dE][dE]C[Ahx]K-NH2 / II: V[Cit][PABC][NMeV]V[Dil][Dolaproine]-X2; linker I:6-II:N via Hexanoyl(6-succinimido-3yl)) the “tumor free mice, orthotopic PC3pip, 3860 nmol/kg” value [1] was “one”, the “cleavage by cathepsin B (in words)” value [2] was “release of free MMAE” and the “stability in PBS (in words)” value [3] was “stable”. The “cures, C4-2 tumors” value [4] was 2 / 7, the EC50 at 72 h ([5]; 72 h, CCK-8, in the presence of 10 μM of PSMA-1, read-out: EC50, cytotoxicity to PC3flu cells + PSMA-1) was 261 ± 5.6 nM and the EC50 at 72 h ([5]; 72 h, CCK-8, in the presence of protease inhibitor E64 (50 μM given for the Cy5.5 conjugates), read-out: EC50, cytotoxicity to PC3flu cells + E64) was 385 ± 5.3 nM. For the same molecule, the EC50 at 72 h ([5]; 72 h incubation, CCK-8, mean ± SD, read-out: EC50, cytotoxicity to PC3flu cells) was 222 ± 2.8 nM, the IC50 [6] was 4.34 nM and the “cures, metastatic PC3pip” value [7] was “six out of eight”. The “cure rate, metastatic PC3pip” value ([7]; started 1 week after cardiac injection) was 75%, the selectivity ratio at 72 h ([8]; PC3pip and PC3flu cells, more potent for PC3pip than PC3flu, read-out: selectivity, differential cytotoxicity ratio between PC3pip and PC3flu cells) was 48 and the EC50 at 72 h ([8]; 72 h, CCK-8, in the presence of 10 μM of PSMA-1, read-out: EC50, cytotoxicity to PC3pip cells + PSMA-1) was 241 ± 8.6 nM. The EC50 at 72 h ([8]; 72 h, CCK-8, in the presence of protease inhibitor E64 (50 μM given for the Cy5.5 conjugates), read-out: EC50, cytotoxicity to PC3pip cells + E64) was 31.1 ± 2.11 nM, the EC50 at 72 h ([8]; 72 h incubation, CCK-8, mean ± SD, read-out: EC50, cytotoxicity to PC3pip cells) was 4.64 ± 0.83 nM and the “tumor growth (in words), 191 nmol/kg” value ([9]; 191 nmol/kg i.v. every 4 days, five doses, n = 5) was “significant tumor inhibition”. The “cures, 955 nmol/kg” value ([9]; 955 nmol/kg i.v. every 4 days, five doses, n = 5) was 2/5, the “histology (H&E) of major organs (in words)” value ([9]; 3820 nmol/kg every 4 days, five injections, day 21) was “no noticeable histological changes; also recorded: no histological damage in salivary gland” and the “cure rate, 3820 nmol/kg” value [9, 10] was 60%. The “cures (tumor-free mice at 90 days), 3820 nmol/kg” value [9, 10] was “three out of five”, the “survival over 90-day experimental time, 3820 nmol/kg” value [9, 10] was “all five mice survived” and the therapeutic index ([9]; MTD/effective dose) was 20. The “lowest dose to effectively inhibit tumor growth” value ([9]; i.v. every 4 days, five doses, tumor growth inhibited for 30 days, n = 5) was 382 nmol/kg and the “body weight (in words)” value ([9]; up to 3820 nmol/kg i.v. every 4 days, five doses) was “No body weight loss”.
